Assay results as given in patent US12043632B2, “6-heteroaryloxy benzimidazoles and azabenzimidazoles as JAK2 inhibitors” (Ajax Therapeutics, Inc., priority 2020, dated 2024).

Molecular target: T1, JAK2 (JH1domain-catalytic, Y1007F,Y1008F) kinase (Homo sapiens, UniProt O60674, Y1007F/Y1008F)
T1 construct: JAK2 (JH1domain-catalytic, Y1007F,Y1008F) kinase was expressed as N-terminal fusion; made in house; host or cells: transiently transfected HEK293 cells
Assay: JAK2 JH1 Domain Binding Assay
Conditions: qPCR readout

T1 sequence (O60674 849-1124 Y1007F/Y1008F limits assumed): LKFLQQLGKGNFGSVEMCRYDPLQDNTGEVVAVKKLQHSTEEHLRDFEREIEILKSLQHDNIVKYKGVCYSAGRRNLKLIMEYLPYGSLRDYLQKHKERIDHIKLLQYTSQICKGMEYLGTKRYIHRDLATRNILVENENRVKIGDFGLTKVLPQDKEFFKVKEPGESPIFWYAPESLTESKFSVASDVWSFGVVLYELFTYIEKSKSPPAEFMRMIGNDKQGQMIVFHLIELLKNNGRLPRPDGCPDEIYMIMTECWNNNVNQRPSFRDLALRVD

**Q.** For `CNc1nccn2ncc(Oc3cnc4nc(Nc5cc(OC6CCN(C)CC6)cc(C(F)(F)F)c5)n(C)c4c3Cl)c12` [Example I-227, 7-chloro-1-methyl-6-((4-(methylamino)pyrazolo[1,5-a]pyrazin-3-yl)oxy)-N-(3-((1-methylpiperidin-4-yl)oxy)-5-(trifluoromethyl)phenyl)-1H-imidazo[4,5-b]pyridin-2-amine], which Kd is on record?
**A.** 10 to 50 nM

**Q.** Which Kd does the source give for `CNc1nccn2ncc(Oc3cnc4nc(Nc5cc(O[C@H]6CCN(C)C6)cc(C(F)(F)F)c5)n(C)c4c3Cl)c12` [Example I-228, (S)-7-chloro-1-methyl-6-((4-(methylamino)pyrazolo[1,5-a]pyrazin-3-yl)oxy)-N-(3-((1-methylpyrrolidin-3-yl)oxy)-5-(trifluoromethyl)phenyl)-1H-imidazo[4,5-b]pyridin-2-amine] here?
**A.** 10 to 50 nM

**Q.** For `CNc1nccn2ncc(Oc3cnc4nc(Nc5cc(O[C@@H]6CCN(C)C6)cc(C(F)(F)F)c5)n(C)c4c3Cl)c12` [Example I-229, (R)-7-chloro-1-methyl-6-((4-(methylamino)pyrazolo[1,5-a]pyrazin-3-yl)oxy)-N-(3-((1-methylpyrrolidin-3-yl)oxy)-5-(trifluoromethyl)phenyl)-1H-imidazo[4,5-b]pyridin-2-amine], which Kd is on record?
**A.** 10 to 50 nM

**Q.** `CCn1c(C(C)(C)C)ncc(Nc2nc3ncc(Oc4cnn5ccnc(NC)c45)c(Cl)c3n2C)c1=O` [Example I-230, 2-(tert-butyl)-5-((7-chloro-1-methyl-6-((4-(methylamino)pyrazolo[1,5-a]pyrazin-3-yl)oxy)-1H-imidazo[4,5-b]pyridin-2-yl)amino)-3-ethylpyrimidin-4(3H)-one] was tested. Which Kd did it give?
**A.** 50 to 1000 nM

**Q.** How did the Kd turn out when `Cc1nc(Nc2nc3ncc(Oc4cnn5ccncc45)c(Cl)c3n2C)nc(C)c1C1CC1` [Example I-231, 7-chloro-N-(5-cyclopropyl-4,6-dimethylpyrimidin-2-yl)-1-methyl-6-(pyrazolo[1,5-a]pyrazin-3-yloxy)-1H-imidazo[4,5-b]pyridin-2-amine] was run?
**A.** < 10 nM

**Q.** Which Kd does the source give for `Cn1c(Nc2nn3c(c2F)COC(C)(C)C3)nc2ncc(Oc3cnn4ccncc34)c(Cl)c21` [Example I-232, N-(7-chloro-1-methyl-6-(pyrazolo[1,5-a]pyrazin-3-yloxy)-1H-imidazo[4,5-b]pyridin-2-yl)-3-fluoro-6,6-dimethyl-6,7-dihydro-4H-pyrazolo[5,1-c][1,4]oxazin-2-amine] here?
**A.** < 10 nM

**Q.** With `CNc1nccn2ncc(Oc3cnc4nc(Nc5cc(C(F)(F)F)c(C#N)n(C)c5=O)n(C)c4c3Cl)c12` [Example I-233, 5-((7-chloro-1-methyl-6-((4-(methylamino)pyrazolo[1,5-a]pyrazin-3-yl)oxy)-1H-imidazo[4,5-b]pyridin-2-yl)amino)-1-methyl-6-oxo-3-(trifluoromethyl)-1,6-dihydropyridine-2-carbonitrile] as the compound, how does the Kd read?
**A.** 50 to 1000 nM

**Q.** With `CNc1nccn2ncc(Oc3cnc4nc(Nc5cc6c(c(C(F)(F)F)c5)C(C)(C)N(C)C6=O)n(C)c4c3Cl)c12` [Example I-234, 6-((7-chloro-1-methyl-6-((4-(methylamino)pyrazolo[1,5-a]pyrazin-3-yl)oxy)-1H-imidazo[4,5-b]pyridin-2-yl)amino)-2,3,3-trimethyl-4-(trifluoromethyl)isoindolin-1-one] as the compound, how does the Kd read?
**A.** 10 to 50 nM

**Q.** `CNc1nccn2ncc(Oc3cnc4nc(Nc5cc(C(F)(F)F)c(CN(C)C)cc5F)n(C)c4c3Cl)c12` [Example I-235, 7-chloro-N-(4-((dimethylamino)methyl)-2-fluoro-5-(trifluoromethyl)phenyl)-1-methyl-6-((4-(methylamino)pyrazolo[1,5-a]pyrazin-3-yl)oxy)-1H-imidazo[4,5-b]pyridin-2-amine] was tested. Which Kd did it give?
**A.** 10 to 50 nM

**Q.** With `CNc1nccn2ncc(Oc3cnc4nc(Nc5cc(C(F)(F)F)n(C6CC7(COC7)C6)n5)n(C)c4c3Cl)c12` [Example I-236, N-(1-(2-oxaspiro[3.3]heptan-6-yl)-5-(trifluoromethyl)-1H-pyrazol-3-yl)-7-chloro-1-methyl-6-((4-(methylamino)pyrazolo[1,5-a]pyrazin-3-yl)oxy)-1H-imidazo[4,5-b]pyridin-2-amine] as the compound, how does the Kd read?
**A.** < 10 nM

**Q.** With `Cn1c(Nc2cc(N3CCC(O)CC3)cc(C(F)(F)F)c2)nc2ncc(Oc3cnn4ccncc34)c(Cl)c21` [Example I-237, 1-(3-((7-chloro-1-methyl-6-(pyrazolo[1,5-a]pyrazin-3-yloxy)-1H-imidazo[4,5-b]pyridin-2-yl)amino)-5-(trifluoromethyl)phenyl)piperidin-4-ol] as the compound, how does the Kd read?
**A.** 10 to 50 nM

**Q.** `Cn1c(Nc2cc(N3CC[C@@H](O)C3)cc(C(F)(F)F)c2)nc2ncc(Oc3cnn4ccncc34)c(Cl)c21` [Example I-238, (R)-1-(3-((7-chloro-1-methyl-6-(pyrazolo[1,5-a]pyrazin-3-yloxy)-1H-imidazo[4,5-b]pyridin-2-yl)amino)-5-(trifluoromethyl)phenyl)pyrrolidin-3-ol] was tested. Which Kd did it give?
**A.** < 10 nM

**Q.** `CNc1nccn2ncc(Oc3cnc4nc(Nc5cc6c(c(C(F)(F)F)c5)C(C)(C)N(C)C6=O)n(C)c4c3C#N)c12` [Example I-240, 1-methyl-6-((4-(methylamino)pyrazolo[1,5-a]pyrazin-3-yl)oxy)-2-((1,1,2-trimethyl-3-oxo-7-(trifluoromethyl)isoindolin-5-yl)amino)-1H-imidazo[4,5-b]pyridine-7-carbonitrile] was tested. Which Kd did it give?
**A.** 50 to 1000 nM

**Q.** With `CNc1nccn2ncc(Oc3cnc4nc(Nc5cc(OC[C@@H]6CCCN6C)cc(C(F)(F)F)c5)n(C)c4c3Cl)c12` [Example I-241, (S)-7-chloro-1-methyl-6-((4-(methylamino)pyrazolo[1,5-a]pyrazin-3-yl)oxy)-N-(3-((1-methylpyrrolidin-2-yl)methoxy)-5-(trifluoromethyl)phenyl)-1H-imidazo[4,5-b]pyridin-2-amine] as the compound, how does the Kd read?
**A.** < 10 nM

**Q.** `CNc1nccn2ncc(Oc3cnc4nc(Nc5cc(OC[C@H]6CCCN6C)cc(C(F)(F)F)c5)n(C)c4c3Cl)c12` [Example I-242, (R)-7-chloro-1-methyl-6-((4-(methylamino)pyrazolo[1,5-a]pyrazin-3-yl)oxy)-N-(3-((1-methylpyrrolidin-2-yl)methoxy)-5-(trifluoromethyl)phenyl)-1H-imidazo[4,5-b]pyridin-2-amine] was tested. Which Kd did it give?
**A.** < 10 nM

**Q.** `CN1CCC[C@H]1COc1cc(Nc2nc3ncc(Oc4cnn5ccncc45)c(Cl)c3n2C)cc(C(F)(F)F)c1` [Example I-243, (S)-7-chloro-1-methyl-N-(3-((1-methylpyrrolidin-2-yl)methoxy)-5-(trifluoromethyl)phenyl)-6-(pyrazolo[1,5-a]pyrazin-3-yloxy)-1H-imidazo[4,5-b]pyridin-2-amine] was tested. Which Kd did it give?
**A.** < 10 nM

**Q.** For `CN1CCC[C@@H]1COc1cc(Nc2nc3ncc(Oc4cnn5ccncc45)c(Cl)c3n2C)cc(C(F)(F)F)c1` [Example I-244, (R)-7-chloro-1-methyl-N-(3-((1-methylpyrrolidin-2-yl)methoxy)-5-(trifluoromethyl)phenyl)-6-(pyrazolo[1,5-a]pyrazin-3-yloxy)-1H-imidazo[4,5-b]pyridin-2-amine], which Kd is on record?
**A.** < 10 nM

**Q.** With `CNc1nccn2ncc(Oc3cnc4nc(Nc5cc(CN6CC(F)C6)cc(C(F)(F)F)c5)n(C)c4c3Cl)c12` [Example I-246, 7-chloro-N-(3-((3-fluoroazetidin-1-yl)methyl)-5-(trifluoromethyl)phenyl)-1-methyl-6-((4-(methylamino)pyrazolo[1,5-a]pyrazin-3-yl)oxy)-1H-imidazo[4,5-b]pyridin-2-amine] as the compound, how does the Kd read?
**A.** 10 to 50 nM
